Measured values published in article PMC4805166, “Synthetic Cyclolipopeptides Selective against Microbial, Plant and Animal Cell Targets by Incorporation of D-Amino Acids or Histidine” (PLoS ONE, 2016).
“And” between values parts separate entries of the source, which are not always exact repeats. Equal values may be shown once. Read-outs that look alike come from different tables or passages of the source. Where a SMILES comes first, the peptide text is derived from it. [ ]: non-standard residue; d: D form. The star is where a group is joined. Butyryl = CCCC(=O)*

Columns and labels:
[1] = system: Pseudomonas syringae pv. syringae EPS94; assay type: cell-based; conditions: 48 h
How it was run: (§1)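 Peptide dilutions (stocks 500–31.1 μM) mixed 1:10 with 10^8 CFU/mL bacterial suspension in TSB. Incubated 25 °C, OD600 read hourly for 48 h, triplicates, repeated twice. MIC: lowest concentration with no growth at end.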

[2] = system: Xanthomonas axonopodis pv. vesicatoria 2133–2; assay type: cell-based; conditions: TSB, 25°C, 48 h, OD 600 nm; tested at 3.1, 6.2, 12.5, 25, 50 μM; three replicates, experiment repeated twice; MIC = lowest concentration with no growth
How it was run: as §1

[3] = system: tobacco leaves; experiment: Phytotoxicity by infiltration of tobacco leaves; assay type: in vivo; conditions: 250 μM, 100 μL infiltrated into mesophyll of tobacco leaves, 48 h after infiltration; at least three inoculations
Method: Peptide solutions of 50, 100, 150 and 250 μM were infiltrated (100 μL) into the mesophylls of fully expanded tobacco leaves. Six independent inoculations were carried out in a single leaf, and at least three independent inoculations were performed per peptide and concentration randomly distributed in diferent leaves and plants. Control infiltrations with water (negative control) or mellitin (positive control) at the same molar concentration were performed. The appearance of symptoms on the leaves was followed for 48 h after infiltration and measured as a lesion diameter.

[4] = system: Erwinia amylovora PMV6076; experiment: MIC, in vitro growth inhibition; assay type: cell-based; conditions: TSB, 25°C, 48 h, OD 600 nm; tested at 3.1, 6.2, 12.5, 25, 50 μM; three replicates, experiment repeated twice; MIC = lowest concentration with no growth
How it was run: as §1

[5] = system: Fusarium oxysporum f. sp. lycopersici FOL 3 race 2; experiment: MIC, antifungal growth inhibition; assay type: cell-based
How it was run: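 Microconidia are grown on PDA at 25 °C and adjusted to 10^4 conidia/mL. Peptide stocks of 500, 250, 125, 62.5 and 31.1 µM (stock, not final) are mixed with conidia in double-concentrated PDB with 0.003% chloramphenicol, in triplicate, and incubated at 20 °C. OD600 is read every 2 h for seven days, and MIC is the lowest concentration with no growth at the end.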

[6] = system: erythrocyte suspensions of horse blood; conditions: horse erythrocytes 5% vol/vol, TRIS buffer pH 7.2, 1 h at 37°C, absorbance 540 nm, relative to melittin 100 μM, ± confidence interval (α = 0.05);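 further: Read-out is hemoglobin release into the supernatant, with a buffer-only blank subtracted as the 0% baseline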
Method: Blood was centrifuged at 6000g for 5 min, washed three times with TRIS buffer (10 mM TRIS, 150 mM NaCl, pH 7.2) and diluted.
Compounds were solubilized in TRIS buffer and mixed with horse erythrocytes and the final concentrations tested were 250 and 150 μM. The mixture was incubated under continuous shaking for 1 h at 37°C. Then, the tubes were centrifuged at 3500g for 10 min, 80 μL aliquots of the supernatant transferred to 100-well microplates (Bioscreen), diluted with 80 μL water, and the absorbance measured at 540 nm (Bioscreen). Complete hemolysis was obtained by the addition of melittin at 100 μM (Sigma-Aldrich Corporation, Madrid, Spain). The percentage of hemolysis (H) was calculated using the equation: H = 100×[(Op−Ob)/(Om−Ob)], where Op was the density for a given compound concentration, Ob for the buffer, and Om for the melittin positive control.

CCCC(=O)NCCCC[C@H]1NC(=O)[C@H](CCC(N)=O)NC(=O)[C@H](CC(C)C)NC(=O)[C@H](CCCCN)NC(=O)[C@H](CCCCN)NC(=O)[C@H](Cc2ccccc2)NC(=O)[C@H](CCCCN)NC(=O)[C@H](CCCCN)NC(=O)[C@H](CC(C)C)NC(=O)[C@H](CCCCN)NC1=O [BPC706] (cyclo(FKKLQ[dK](Butyryl)KLKK))
MIC Pss [1]: 6.2 to 12.5 µM | MIC Xav [2]: 3.1 to 12.5 µM and 6.2 to 12.5 µM | Phytotoxicity, size of the lesions (necrosis diameter) [3]: 0–0.38 cm | MIC Ea [4]: 25 to 50 µM | MIC Fo [5]: 3.1 to 6.2 µM | MIC Fo ([5]; PDB with 0.003% chloramphenicol, 20°C, seven days, OD 600 nm, tested at 3.1, 6.2, 12.5, 25, 50 μM, three replicates, repeated twice): 3.1 to 6.2 µM | Hemolysis (%) 150 µM ([6]; 150 µM peptide): 35 ± 3% | Hemolysis (%) 250 µM ([6]; 250 µM peptide): 46 ± 3%
